# Assay results as given in patent US8350027B2, “Dual-acting pyrazole antihypertensive agents” (Theravance, Inc., priority 2009, dated 2013).
# Key:
# human AT1 receptor = biological target: T1, human AT1 receptor (Homo sapiens, UniProt P30556); assay: AT1 radioligand binding assay (displacement of [Eu]AngII); details: membranes of CHO-K1 cells expressing cloned human AT1 receptor; values given as lower bounds; read-out: AT1 pKi (converted)
# T1 construct: expressed in transfected cells; host or cells: CHO-K1
# T1 sequence (P30556 1-359): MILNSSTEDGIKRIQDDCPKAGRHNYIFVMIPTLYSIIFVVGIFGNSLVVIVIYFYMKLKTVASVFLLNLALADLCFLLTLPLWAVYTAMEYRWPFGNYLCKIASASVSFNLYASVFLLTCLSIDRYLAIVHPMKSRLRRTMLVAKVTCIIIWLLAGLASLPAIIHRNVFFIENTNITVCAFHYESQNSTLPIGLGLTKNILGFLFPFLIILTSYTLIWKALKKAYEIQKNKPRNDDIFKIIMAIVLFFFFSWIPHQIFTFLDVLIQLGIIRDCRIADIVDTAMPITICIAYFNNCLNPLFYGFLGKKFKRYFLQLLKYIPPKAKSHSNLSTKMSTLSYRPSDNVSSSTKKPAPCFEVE
# Procedure: A. AT1 and AT2 Radioligand Binding Assays
# These in vitro assays were used to assess the ability of test compounds to bind to the AT1 and the AT2 receptors.
# Membrane Preparation from Cells Expressing Human AT1 or AT2 Receptors
# Chinese hamster ovary (CHO-K1) derived cell lines stably expressing the cloned human AT1 or AT2 receptors, respectively, were grown in HAM's-F12 medium supplemented with 10% fetal bovine serum, 10 μg/ml penicillin/streptomycin, and 500 μg/ml geneticin in a 5% CO2 humidified incubator at 37° C. AT2 receptor expressing cells were grown in the additional presence of 100 nM PD123,319 (AT2 antagonist). When cultures reached 80-95% confluence, the cells were washed thoroughly in PBS and lifted with 5 mM EDTA. Cells were pelleted by centrifugation and snap frozen in MeOH-dry ice and stored at −80° C. until further use.
# For membrane preparation, cell pellets were resuspended in lysis buffer (25 mM Tris/HCl pH 7.5 at 4° C., 1 mM EDTA, and one tablet of Complete Protease Inhibitor Cocktail Tablets with 2 mM EDTA per 50 mL buffer (Roche cat.#1697498, Roche Molecular Biochemicals, Indianapolis, Ind.)) and homogenized using a tight-fitting Dounce glass homogenizer (10 strokes) on ice. The homogenate was centrifuged at 1000×g, the supernatant was collected and centrifuged at 20,000×g. The final pellet was resuspended in membrane buffer (75 mM Tris/HCl pH 7.5, 12.5 mM MgCl2, 0.3 mM EDTA, 1 mM EGTA, 250 mM sucrose at 4° C.) and homogenized by extrusion through a 20G gauge needle. Protein concentration of the membrane suspension was determined by the method described in Bradford (1976) Anal Biochem. 72:248-54. Membranes were snap frozen in MeOH-dry ice and stored at −80° C. until further use.
# Ligand Binding Assay to Determine Compound Affinities for the Human AT1 and AT2 Angiotensin Receptors
# Binding assays were performed in 96-well Acrowell filter plates (Pall Inc., cat.#5020) in a total assay volume of 100 μL with 0.2 μg membrane protein for membranes containing the human AT1 receptor, or 2 μg membrane protein for membranes containing the human AT2 receptor in assay buffer (50 mM Tris/HCl pH 7.5 at 20° C., 5 mM MgCl2, 25 μM EDTA, 0.025% BSA). Saturation binding studies for determination of Kd values of the ligand were done using N-terminally Europium-labeled angiotensin-II ([Eu]AngII, H-(Eu-N^1)-Ahx-Asp-Arg-Val-Tyr-Ile-His-Pro-Phe-OH; PerkinElmer, Boston, Mass.) at 8 different concentrations ranging from 0.1 nM to 30 nM. […] Drugs were dissolved to a concentration of 1 mM in DMSO and from there serially diluted into assay buffer. Non-specific binding was determined in the presence of 10 μM unlabeled angiotensin-II. Assays were incubated for 120 minutes in the dark, at room temperature or 37° C., and binding reactions were terminated by rapid filtration through the Acrowell filter plates followed by three washes with 200 μL ice cold wash buffer (50 mM Tris/HCl pH 7.5 at 4° C., 5 mM MgCl2) using a Waters filtration manifold. Plates were tapped dry and incubated with 50 μl DELFIA Enhancement Solution (PerkinElmer cat.#4001-0010) at room temperature for 5 minutes on a shaker. Filter-bound [Eu]AngII was quantitated immediately on a Fusion plate reader (PerkinElmer) using Time Resolved Fluorescence (TRF). Binding data were analyzed by nonlinear regression analysis with the GraphPad Prism Software package (GraphPad Software, Inc., San Diego, Calif.) using the 3-parameter model for one-site competition. The BOTTOM (curve minimum) was fixed to the value for nonspecific binding, as determined in the presence of 10 μM angiotensin II. Ki values for drugs were calculated from observed IC50 values and the Kd value of [Eu]AngII according to the Cheng-Prusoff equation described in Cheng et al. (1973) Biochem Pharmacol. 22 (23):3099-108. Selectivities of test compounds for the AT1 receptor over the AT2 receptor were calculated as the ratio of AT2Ki/AT1Ki. […]
# NEP enzyme = biological target: T2, NEP enzyme (Homo sapiens, UniProt P08473); assay: NEP enzyme inhibition assay (fluorogenic peptide substrate); format: biochemical; details: values given as lower bounds; * = prodrugs, may not exhibit NEP activity in an in vitro assay; read-out: NEP pIC50 (converted)
# T2 construct: purchased R&D Systems, Minneapolis, Minn; 1182-ZN
# Procedure: B. In Vitro Assays for the Quantitation of Inhibitor Potencies (IC50) at Human and Rat NEP, and Human ACE
# The inhibitory activities of compounds at human and rat NEP and human ACE were determined using in vitro assays as described below.
# Recombinant human NEP and recombinant human ACE were obtained commercially (R&D Systems, Minneapolis, Minn., catalog numbers 1182-ZN and 929-ZN, respectively). The fluorogenic peptide substrate Mca-BK2 (Mca-Arg-Pro-Pro-Gly-Phe-Ser-Ala-Phe-Lys(Dnp)-OH; Johnson et al. (2000) Anal. Biochem. 286: 112-118) was used for the human NEP and ACE assays, and Mca-RRL (Mca-DArg-Arg-Leu-(Dnp)-OH; Medeiros et al. (1997) Braz. J. Med. Biol. Res. 30:1157-1162) was used for the rat NEP assay (both from Anaspec, San Jose, Calif.).
# The assays were performed in 384-well white opaque plates at room temperature using the respective fluorogenic peptides at a concentration of 10 μM in assay buffer (50 mM Tris/HCl at 25° C., 100 mM NaCl, 0.01% Tween-20, 1 μM Zn, 0.025% BSA). […] The rat NEP enzyme preparation was used at a concentration that yielded quantitative proteolysis of 3 μM of Mca-RRL within 20 minutes at room temperature.
# Test compounds were diluted to 12 concentrations from 10 μM to 20 pM in Assay Buffer. Assays were started by adding 25 μL of enzyme to 12.5 μL of test compound at each of the 12 concentrations. Test compounds were allowed to equilibrate with the enzyme for 10 minutes before 12.5 μL of the fluorogenic substrates were added to initiate the reaction. Reactions were terminated by the addition of 10 μL of 3.6% glacial acetic acid after 20 minutes of incubation.
# For sulfhydryl-containing test compounds, the test compounds may be diluted in Assay Buffer containing a 400 μM concentration of tris(2-carboxyethyl)phosphine hydrochloride (Thermo Scientific, Rockford, Ill.) (TCEP). The test compounds are then incubated for 40 minutes at room temperature (to allow for dimer cleavage) before adding the enzyme. Test compounds are then allowed to equilibrate with the enzyme for 20 minutes before adding the fluorogenic substrates. Reactions are terminated as above.
# Plates were read on a fluorometer with excitation and emission wavelengths set to 320 nm and 405 nm, respectively. Raw data (relative fluorescence units) were normalized to % activity from the average high readings (no inhibition, 100% enzyme activity) and average low readings (full inhibition, highest inhibitor concentration, 0% enzyme activity) using three standard NEP and ACE inhibitors, respectively. Nonlinear regression of the normalized data was performed using a one site competition model (GraphPad Software, Inc., San Diego, Calif.). Data were reported as pIC50 values.
# T2 sequence (P08473 52-750 limits assumed): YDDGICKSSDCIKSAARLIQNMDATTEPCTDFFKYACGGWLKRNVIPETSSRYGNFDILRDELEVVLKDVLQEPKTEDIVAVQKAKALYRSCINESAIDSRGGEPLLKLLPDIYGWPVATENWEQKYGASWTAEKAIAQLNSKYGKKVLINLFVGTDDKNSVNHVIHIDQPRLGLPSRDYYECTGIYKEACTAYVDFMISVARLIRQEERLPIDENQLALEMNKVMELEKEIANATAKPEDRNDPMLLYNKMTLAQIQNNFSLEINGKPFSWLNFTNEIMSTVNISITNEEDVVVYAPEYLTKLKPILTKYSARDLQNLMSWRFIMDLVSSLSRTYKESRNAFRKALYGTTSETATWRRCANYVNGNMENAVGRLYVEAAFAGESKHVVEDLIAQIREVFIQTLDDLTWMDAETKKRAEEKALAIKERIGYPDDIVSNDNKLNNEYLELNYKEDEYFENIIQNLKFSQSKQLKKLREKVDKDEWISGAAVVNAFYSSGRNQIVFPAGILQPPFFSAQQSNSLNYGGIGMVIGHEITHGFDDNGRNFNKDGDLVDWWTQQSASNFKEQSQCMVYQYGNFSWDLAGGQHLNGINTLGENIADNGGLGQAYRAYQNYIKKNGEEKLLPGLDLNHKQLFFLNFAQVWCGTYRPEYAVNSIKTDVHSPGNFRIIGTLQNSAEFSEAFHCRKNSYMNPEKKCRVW
smiles,measurement,setting,value
"CCCc1cc(C(=O)N[C@H](CC(C)C)CN(O)C=O)nn1Cc1ccc(-c2ccccc2-c2nnn[nH]2)cc1 [Example 3-25, 5-Propyl-1-[2′-(1H-tetrazol-5-yl)-biphenyl-4-ylmethyl]-1H-pyrazole-3-carboxylic acid {(R)-1-[(formylhydroxyamino)methyl]-3-methylbutyl}amide]",Ki,human AT1 receptor,≤ 10 nM
same,IC50,NEP enzyme,≤ 0.1 µM
"CCCc1cc(C(=O)N[C@H](Cc2ccccc2)[C@@H](O)C(=O)O)nn1Cc1c(F)cc(-c2ccccc2-c2nnn[nH]2)cc1F [Example 3-26, (2R,3R)-3-(1-((3,5-difluoro-2′-(1H-tetrazol-5-yl)biphenyl-4-yl)methyl)-5-propyl-1H-pyrazole-3-carboxamido)-2-hydroxy-4-phenylbutanoic acid]",Ki,human AT1 receptor,≤ 100 nM
same,IC50,NEP enzyme,≤ 0.1 µM
"CCCc1cc(C(=O)N[C@@H](CC(=O)OC)Cc2ccccc2)nn1Cc1ccc(-c2ccccc2-c2nnn[nH]2)cc1 [Example 3-27, (R)-4-Phenyl-3-({5-propyl-1-[2′-(1H-tetrazol-5-yl)-biphenyl-4-ylmethyl]-1H-pyrazole-3-carbonyl}amino)butyric acid methyl ester]",Ki,human AT1 receptor,≤ 10 nM
same,IC50,NEP enzyme,≤ 10 µM
"CCCc1cc(C(=O)N[C@@H](CC(=O)OC)Cc2ccccc2Cl)nn1Cc1ccc(-c2ccccc2-c2nnn[nH]2)cc1 [Example 3-28, (R)-4-(2-Chlorophenyl)-3-({5-propyl-1-[2′-(1H-tetrazol-5-yl)biphenyl-4-ylmethyl]-1H-pyrazole-3-carbonyl}amino)butyric acid methyl ester]",Ki,human AT1 receptor,≤ 10 nM
same,IC50,NEP enzyme,≤ 10 µM
"CCCc1cc(C(=O)N[C@@H](CC(=O)OC)Cc2ccccc2C)nn1Cc1ccc(-c2ccccc2-c2nnn[nH]2)cc1 [Example 3-29, (R)-3-({5-Propyl-1-[2′-(1H-tetrazol-5-yl)-biphenyl-4-ylmethyl]-1H-pyrazole-3-carbonyl}amino)-4-o-tolyl-butyric acid methyl ester]",Ki,human AT1 receptor,≤ 10 nM
same,IC50,NEP enzyme,≤ 10 µM
"CCCc1cc(C(=O)N[C@@H](CC(=O)O)Cc2ccccc2)nn1Cc1ccc(-c2ccccc2-c2nnn[nH]2)cc1F [Example 3-30, (R)-3-({1-[3-Fluoro-2′-(1H-tetrazol-5-yl)biphenyl-4-ylmethyl]-5-propyl-1H-pyrazole-3-carbonyl}amino)-4-phenylbutyric acid]",Ki,human AT1 receptor,≤ 10 nM
same,IC50,NEP enzyme,≤ 10 µM
"CCOc1cc(C(=O)N[C@@H](CC(=O)O)Cc2ccccc2)nn1Cc1ccc(-c2ccccc2-c2nnn[nH]2)cc1F [Example 3-31, (R)-3-({5-Ethoxy-1-[3-fluoro-2′-(1H-tetrazol-5-yl)biphenyl-4-ylmethyl]-1H-pyrazole-3-carbonyl}amino)-4-phenylbutyric acid]",Ki,human AT1 receptor,≤ 100 nM
same,IC50,NEP enzyme,≤ 10 µM
"CCOc1cc(C(=O)N[C@@H](CC(=O)O)Cc2ccccc2)nn1Cc1ccc(-c2ccccc2-c2nnn[nH]2)cc1 [Example 3-32, (R)-3-({5-Ethoxy-1-[2′-(1H-tetrazol-5-yl)biphenyl-4-ylmethyl]-1H-pyrazole-3-carbonyl}amino)-4-phenylbutyric acid]",Ki,human AT1 receptor,≤ 100 nM
same,IC50,NEP enzyme,≤ 10 µM
"CCCc1cc(C(=O)N[C@@H](CC(=O)O)Cc2ccccc2F)nn1Cc1ccc(-c2ccccc2-c2nnn[nH]2)cc1 [Example 3-33, (R)-4-(2-Fluorophenyl)-3-({5-propyl-1-[2′-(1H-tetrazol-5-yl)biphenyl-4-ylmethyl]-1H-pyrazole-3-carbonyl}amino)butyric acid]",Ki,human AT1 receptor,≤ 10 nM
same,IC50,NEP enzyme,≤ 10 µM
"CCCc1cc(C(=O)N[C@@H](CC(=O)O)Cc2ccccc2Cl)nn1Cc1ccc(-c2ccccc2-c2nnn[nH]2)cc1 [Example 3-34, (R)-4-(2-Chlorophenyl)-3-({5-propyl-1-[2′-(1H-tetrazol-5-yl)biphenyl-4-ylmethyl]-1H-pyrazole-3-carbonyl}amino)butyric acid]",Ki,human AT1 receptor,≤ 10 nM
same,IC50,NEP enzyme,≤ 10 µM
"CCCc1cc(C(=O)N[C@@H](CC(=O)O)Cc2ccccc2C)nn1Cc1ccc(-c2ccccc2-c2nnn[nH]2)cc1 [Example 3-35, (R)-3-({5-Propyl-1-[2′-(1H-tetrazol-5-yl)biphenyl-4-ylmethyl]-1H-pyrazole-3-carbonyl}amino)-4-o-tolylbutyric acid]",Ki,human AT1 receptor,≤ 10 nM
same,IC50,NEP enzyme,≤ 10 µM
"CCCc1cc(C(=O)N[C@@H](CC(=O)O)Cc2ccccc2C(F)(F)F)nn1Cc1ccc(-c2ccccc2-c2nnn[nH]2)cc1 [Example 3-36, (R)-3-({5-Propyl-1-[2′-(1H-tetrazol-5-yl)-biphenyl-4-ylmethyl]-1H-pyrazole-3-carbonyl}amino)-4-(2-trifluoromethylphenyl)butyric acid]",Ki,human AT1 receptor,≤ 100 nM
same,IC50,NEP enzyme,≤ 1 µM
